# Assay results from patent US11058654B2, “Compositions and methods for the treatment of hemoglobinopathies and thalassemias” (AXCELLA HEALTH INC., priority 2018, dated 2021).
# How the values were obtained:
# Assay type in all cases: cell-based, human
# ICAM-1 = ICAM-1 cell integrated intensity in HLMVEC treated with TNFa; details: 0.5 ng/mL TNFα; amino acids at 20×; 24 hours; in words
# Excerpt: (§1) A VEC model was employed to assess the ability of amino acids to influence aspects of vascular dysfunction in SCD. TNFa treatment of healthy donor HLMVEC mimics the SCD disease state and induces expression of adhesion markers ICAM-1 and VCAM-1, and secretion of proinflammatory cytokine IL-6. It is established that levels of ICAM-1, VCAM-1, and IL-6 can contribute to SCD pathology and correlate with the incidence and severity of complications in SCD patients. The VEC model sought to test the ability of amino acids to reduce the TNFa-induced disease phenotype by lowering expression of adhesion markers (ICAM-1 and VCAM-1) and inflammatory cytokines (IL-6) while promoting VEC health and viability.
# Primary Human Lung Microvascular Endothelial Cells (HLMVEC; Lonza) were seeded at 6,000 cells per well in Endothelial Cell Growth Basal Medium-2 (Lonza) supplemented with Fetal Bovine Serum (FBS; Lonza), human EGF (Lonza), human VEGF (Lonza), R3-Insulin-like Growth Factor-1 (Lonza), ascorbic acid (Lonza), hydrocortisone (Lonza), human FGF-beta (Lonza), and gentamicin/amphotericin-b (Lonza) in a 96-well plate (Thermo Fisher). […]
# (§2) Antibody binding was detected by fluorescence microscopy using a high content imager (Molecular Devices). Images were analyzed using MetaXpress 6 software to determine the integrated intensity per cell for each wavelength corresponding to ICAM-1 or VCAM-1.
# VCAM-1 = VCAM-1 cell integrated intensity in HLMVEC treated with TNFa; details: 0.5 ng/mL TNFα; amino acids at 20×; 24 hours; in words
# Excerpt: as §1
# Primary Human Lung Microvascular Endothelial Cells (HLMVEC; Lonza) were seeded at 6,000 cells per well in Endothelial Cell Growth Basal Medium-2 (Lonza) supplemented with Fetal Bovine Serum (FBS; Lonza), human EGF (Lonza), human VEGF (Lonza), R3-Insulin-like Growth Factor-1 (Lonza), ascorbic acid (Lonza), hydrocortisone (Lonza), human FGF-beta (Lonza), and gentamicin/amphotericin-b (Lonza) in a 96-well plate (Thermo Fisher). The cells were incubated for 45 minutes at room temperature, then incubated overnight at 37° C./5% CO2.
# Following overnight incubation, cell were washed once with 150 μL of Dulbecco's phosphate buffered saline (DPBS; Gibco), and then treated with Endothelial Basal Medium MCB-131 (amino acid, glucose, sodium pyruvate, and phenol red free; US Biologicals) containing a defined custom amino acid concentration based on physiological concentrations in blood of patients with SCD (thus recapitulating observed metabolic imbalances such as the depletion of certain essential amino acids including arginine and aspartate and enrichment of certain non-essential amino acids including glutamate and asparagine), dialyzed FBS (Hyclone), human EGF (Lonza), human VEGF (Lonza), R3-Insulin-like Growth Factor-1 (Lonza), ascorbic acid (Lonza), hydrocortisone (Lonza), human FGF-beta (Lonza), and gentamicin/amphotericin-b (Lonza), glucose, 10 mM HEPES, sodium pyruvate, and sodium bicarbonate supplemented with one of the following: • a. PBS (vehicle control), • b. 0.5 ng/mL Tumor Necrosis Factor alpha (TNFα) and PBS, or; • c. 0.5 ng/mL TNFα and amino acid treatments at 20× mean physiological concentrations in plasma based on values published in the Human Metabolome Database (HMDB) in PBS.
# After 24 hours of treatment, cells were washed once with 150 μL of DPBS (Gibco), then fixed with 4% paraformaldehyde. […]
# as §2
# [1] = tested on: whole blood of healthy control donors; test: Reactive oxygen species (DCF fluorescence, H2O2) in whole blood of healthy controls
# Experimental: (§3) Whole blood samples were appropriately diluted in Ca^2+- and Mg^2+-free Dulbecco's phosphate buffered saline (DPBS, Life Technologies) and the concentration of erythrocytes (RBC/ml) was measured on a Cellometer K2 Fluorescent Viability Cell Counter according to the manufacturer's RBC/AOPI protocol (Nexcelom Biosciences).
# (§4) Cells were then diluted to 1*10^6 RBC/ml into either prewarmed 37° C. […] 2′-7′-dichlorofluorescin diacetate (DCF, Millipore Sigma), 20 mM in dimethyl sulfoxide (DMSO, Fisher) were added to a working concentration of 100 μM. Cells were incubated with dye for 15 minutes at 37° C., 5% CO2 in a tissue culture incubator, washed once, and resuspended in the 0.9 volumes of the same prewarmed 37° C. buffer with 5 minute spins at 500× g, accel/decal=5 in a swing arm centrifuge (Beckman Coulter). […] Where possible due to solubility constrains, pH-7.4-adjusted stock solutions of amino acids were used. Wells were mixed by pipetting and plates incubated at 37° C., 5% CO2 in a tissue culture incubator for 30 minutes. Optionally, 40 mM H2O2(Millipore Sigma) freshly prepared in the same buffer was added to bring the concentration to 2 mM, wells mixed by pipetting, and plates were incubated an additional 30, 60, 120, or 240 minutes before fluorescence measurement of ROS signal on a Synergy H4 (BioTek) microplate reader with excitation=488 nm and emission=530 nm, and gain either set to autogain, 75, or 100.
# [2] = tested on: sickle cell disease patient blood; test: Reactive oxygen species (DCF fluorescence, H2O2) in sickle cell disease patient blood
# Experimental: as §3, §4
smiles,measurement,setting,value
"NCC(=O)O [Gly, glycine]",TNF-α induced ICAM-1 expression levels in HLMVEC,ICAM-1,reduced levels of ICAM-1 expression to a lesser extent
same,VCAM-1 expression in HLMVEC,VCAM-1,greatly reduced
N[C@@H](Cc1c[nH]c2ccccc12)C(=O)O [tryptophan],ROS signal,"[1]; healthy donor blood, 10×",increased ROS signal
same,ROS signal,[2]; 10×,increased ROS signal
N[C@@H](CS)C(=O)O [cysteine],ROS measured in whole blood,"[1]; healthy control donors, treated with H2O2, dose-responsive",reduced ROS
same,ROS measured in whole blood,[2]; treated with H2O2 and untreated in DPBS,reduced ROS
